The results in this text go back to patent publication US20240327756A1, “METAL COMPLEXES, AND D[…] CONTAINING SAME” (HENKEL AG & CO. KGAA, priority 2021, published 2024).

In this assay the target is bovine serum albumin (BSA) (Bos taurus, UniProt P02769). Conditions: BSA 0.02 mM, complex 2 mM, 60° C., pH 9, 24 h incubation; reference without complex = 1.0.
Sequence of bovine serum albumin (BSA) (P02769 25-607): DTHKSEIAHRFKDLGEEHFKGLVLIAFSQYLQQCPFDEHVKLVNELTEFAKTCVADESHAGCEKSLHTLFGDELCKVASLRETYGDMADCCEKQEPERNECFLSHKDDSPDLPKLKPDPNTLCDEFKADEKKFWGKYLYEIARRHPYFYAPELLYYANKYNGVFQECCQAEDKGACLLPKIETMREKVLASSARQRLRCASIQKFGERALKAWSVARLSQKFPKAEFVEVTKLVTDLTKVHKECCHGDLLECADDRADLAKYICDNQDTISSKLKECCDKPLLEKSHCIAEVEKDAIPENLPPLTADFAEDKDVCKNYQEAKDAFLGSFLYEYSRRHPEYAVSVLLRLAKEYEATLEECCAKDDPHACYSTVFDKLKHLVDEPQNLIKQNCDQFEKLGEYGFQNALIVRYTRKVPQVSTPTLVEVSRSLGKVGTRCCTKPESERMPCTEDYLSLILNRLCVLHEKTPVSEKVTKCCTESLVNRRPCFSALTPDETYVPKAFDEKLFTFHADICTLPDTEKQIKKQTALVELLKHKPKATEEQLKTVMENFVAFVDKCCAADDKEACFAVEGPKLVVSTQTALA

Procedure: The hydrolysis of protein dirt was investigated using degradation of bovine serum albumin (BSA). […] The incubated material was then examined with the known method of SDS-PAGE with regard to the intensity of the band to be assigned to BSA. BSA incubated under the same conditions without the addition of complexes served as reference. The intensity values given in the following table are relative values based on the intensity of the band of the reference at t=24 h.

For “Sc (III) Complex of 1,7-dioxa-4,10-diazacyclododecane-4,10-di(methyl(phenol)) [complex P1]”, the “Intensity (of the SDS-PAGE band assigned to BSA, relative to the reference band at t=24 h)” value is 0.84.
